Source: patent US4804651A, “Methods and compositions for the treatment of psoriasis” (Board of Regents, The University of Texas System, priority 1987, dated 1989)
Where two headings read alike, the source gives them in different places.

What was measured:
[1] = Progression of AIDS in the individual treated for psoriasis; format: in vivo, human; conditions: 800 mg orally per day
Excerpt: Of the following examples, examples I through IV disclose toxicity data obtained from the manufacturer of AZT, Burroughs Wellcome Drug Co., developed during the course of obtaining FDA approval for use of the drug in the treatment of AIDS. However, treatment protocols effective in treating psoriasis are similar.
An individual developed severe psoriasis and AIDS-related complex (ARC). As their immunity diminished over the next eight months to a T4 count of 14/mm^3, the psoriasis became more extensive, including 60% of their body, all nails and digits.
Ten months after developing the ARC and psoriasis, the individual developed Pneumocystis carinii pneumonia (PCP) and esophageal candidiasis.

rats [2] = conditions: intravenous (IV); cited from earlier work
mice = conditions: intravenous (IV); cited from earlier work
dogs = conditions: IV dose levels up to 85 mg/kg/day for 2 weeks; cited from earlier work
rats [3] = conditions: IV dose levels up to 150 mg/kg/day for one month; cited from earlier work
rats [4] = conditions: oral, up to 500 mg/kg/day; cited from earlier work
Beagle dogs = conditions: cited from earlier work
Cynomolgus monkeys [5] = conditions: cited from earlier work
Cynomolgus monkeys [6] = conditions: cited from earlier work; remark: listed apart in the source
rats [7] = conditions: cited from earlier work
pregnant rats = conditions: up to 500 mg/kg oral, gestation day 6 through 15; cited from earlier work
[8] = system: cultured human lymphocytes; conditions: in vitro; cited from earlier work
[9] = cited from earlier work
[10] = in vivo; cited from earlier work
[11] = system: patients with AIDS OR AIDS-related complex and HTLV-III/LAV viremia; conditions: cited from earlier work
[12] = system: patients (AIDS) recovered from Pneumocystis carinii pneumonia (PCP) and late AIDS-Related Complex (ARC); conditions: cited from earlier work
[13] = Treatment of severe psoriasis in an individual with AIDS-related complex
[14] = one female dog, sacrificed on day 14

For `Cc1cn([C@H]2C[C@H](N=[N+]=[N-])[C@@H](CO)O2)c(=O)[nH]c1=O` [azidothymidine, 3'-azido-3'-deoxythymidine], the “efficacy in relieving the progression of AIDS” value [1] is given as “no efficacy in relieving the progression of this individual's AIDS”, the LD50 (rats [2]) is given as “greater than 70 mg/kg” and the LD50 (mice) is given as “greater than 70 mg/kg”. For the same compound, the alterations (dogs) was “No significant alterations were seen”, the changes (rats [3]) was “no changes were noted” and the “histologic changes in liver and kidney” value (rats [4]) was “very minimal histologic changes in the liver and kidney of a few animals were observed”. For the same compound, the leukopenia and thrombocytopenia (Beagle dogs; Beagle dogs, oral, all dose levels (125, 250, 500 mg/kg/day), 2 weeks) was “Moderate to marked leukopenia and thrombocytopenia was noted at all dose levels”, the “vomiting and fecal alterations” value (Beagle dogs; Beagle dogs, oral, high doses, daily for 2 weeks) was “Vomiting and fecal alterations (with blood) were seen in dogs receiving high doses” and the “bone marrow and lymphoid tissue findings” value (Beagle dogs; Beagle dogs, oral, further studies) was “hypocellularity of the bone marrow; hypoactive lymphoid tissues were also noted”. For the same compound, the gross gastrointestinal findings (Beagle dogs; high dose dogs and a mid-dose female, high dose female) was “hemorrhage in the gastrointestinal tract in the high dose dogs and a mid-dose female, as well as a maturational defect with mucosal atrophy in the intestinal tract of the high dose female were observed”, the “alkaline phosphatase, BUN, and creatinine” value (Beagle dogs; [14]) was “alkaline phosphatase, BUN, and creatinine were elevated” and the weight loss (Beagle dogs; [14]) was “significant weight loss”. The vomiting (Cynomolgus monkeys [5]; Cynomolgus monkeys, high dose male, oral, 2 weeks) was “frequent vomiting in the high dose male”, the “RBC, HCT, Hgb” value (Cynomolgus monkeys [5]; all treatment levels (125, 250, 500 mg/kg/day), oral 2 weeks, values still within normal limits) was “a slight nondose-related decrease (values still within normal limits) in RBC, HCT, Hgb at all treatment levels” and the SGPT (Cynomolgus monkeys [5]; treated males and the high dose female, values still within normal limits) was “a slight increase in SGPT (Values still within normal limits) in treated males and the high dose female”. For the same compound, the “recovery of hematology values” (Cynomolgus monkeys [6]; 26-39 day post-dosing recovery period) was “These values returned to normal limits during the 26-39 day post-dosing recovery period”, the “RBCs, hemoglobin, and hematocrit” value (Cynomolgus monkeys [6]; 34, 100, or 300 mg/kg by gavage, day 21) was “dose-related decreases in RBCs, hemoglobin, and hematocrit at day 21” and the hemoglobin and hematocrit (Cynomolgus monkeys [6]; remainder of treatment period after day 21) was “hemoglobin and hematocrit remained stable”. For the same compound, the RBCs (Cynomolgus monkeys [6]; until the end of treatment) was “further reduced until the end of treatment”, the glucose (rats [7]; high dose female rats, day 89) was “A mild increase in glucose was observed only in high dose female rats on day 89” and the “clinical observation (staining of the anogenital area)” value (rats [7]; high dose male rats) was “occasional staining of the anogenital area in high dose male rats”. The SGOT (rats [7]; high dose rats at various times) was “a mild decrease in SGOT in high dose rats at various times”, the “hematologic changes or gross pathologic changes” value (rats [7]; rats, 13 weeks oral) was “no hematologic changes or gross pathologic changes” and the treatment related deaths (rats [7]; rats, 56, 167 or 500 mg/kg/day by gavage, 13 weeks) was “no treatment related deaths”. The maternal weight (pregnant rats) was “a slight decrease in maternal weight was noted”, the clastogenicity [8] was “clastogenic” and the Cmax ([9]; Group A, IV, 1.0 mg/kg Q 8 hr) was 0.44 ± 0.14 microgram/ml. The Cmax ([9]; Group A, oral, 2.0 mg/kg Q 8 hr) was 0.53 ± 0.11 microgram/ml, the Cmax ([9]; Group B, IV, 2.5 mg/kg Q 8 hr) was 1.17 ± 0.49 microgram/ml and the Cmax ([9]; Group B, oral, 5.0 mg/kg Q 8 hr) was 1.37 ± 0.58 microgram/ml. For the same compound, the Cmax ([9]; Group C, IV, 2.5 mg/kg Q 4 hr) was 1.06 ± 0.03 microgram/ml, the Cmax ([9]; Group C, oral, 5.0 mg/kg Q 4 hr) was 1.57 ± 0.81 microgram/ml and the Cmax ([9]; Group D, IV, 5.0 mg/kg Q 4 hr) was 2.28 ± 0.31 microgram/ml. The Cmax ([9]; Group D, oral, 10.0 mg/kg Q 4 hr) was 3.14 ± 0.73 microgram/ml, the Cmax ([9]; Group E, IV, 7.5 mg/kg Q 4 hr) was 4.71 ± 0.79 microgram/ml and the Cmax ([9]; Group E, oral, 15.0 mg/kg Q 4 hr) was 10.40 ± 3.47 microgram/ml. For the same compound, the total body clearance ([9]; IV doses from 1.0 to 5.0 mg/kg) was “approximately 1900 ml/min/70 kg”, the “dose excreted unchanged in the urine as AZT” value ([9]; IV dosing) was “about 25%” and the “plasma decay after the end of infusion” value ([9]; IV) was “biexponential decay after the end of infusion indicating two-compartmental pharmacokinetics”. For the same compound, the mean half-life ([9]; all dose levels, IV and oral dosing) was “approximately 1.0 hr”, the “dose proportionality of Cmax and AUC” value ([9]; between 5.0 and 7.5 mg/kg IV and 10.0 and 15 mg/kg oral) was “a disproportional increase in peak concentrations (Cmax) and area under the plasma-concentration time curve (AUC)” and the “drug or metabolite accumulation” value ([9]; chronic IV or oral dosing) was “No unexpected drug or metabolite accumulation was observed”. The “dose proportionality of concentrations” value ([9]; doses to 5.0 mg/kg IV and 10 mg/kg oral) was “increased proportionally with doses to 5.0 and 10 mg/kg, for IV and oral administration respectively, indicating dose-independent kinetics up to these dosages”, the renal clearance ([9]; estimated) was “about 500 ml/min” and the bioavailability ([9]; oral, all dose levels) was 60-70%. The “cause of incomplete bioavailability” value ([9]; oral) was “appears to be due to first-pass metabolism, rather than reduced absorption”, the side effects [10] was “hematologic abnormalities such as anemia, neutropenia, bone marrow toxicity, headache, mild CNS symptoms, insomnia” and the “mild confusion or anxiety (number of patients)” value ([11]; 29 patients) was “Three”. For the same compound, the “transient elevations in transaminases (number of patients)” value ([11]; 29 patients) was “Five”, the “transient erythematous rash (number of patients)” value ([11]; 29 patients) was “one” and the decline in hemoglobin ([11]; by six weeks) was “all patients had some decline in hemoglobin by six weeks, the change was not proportional to the starting dose”. The deaths ([11]; during the year since the trial was initiated) was “Four”, the “anemia which warranted dose reduction or temporary interruption” value ([11]; human, in vivo, po) was “Twenty of 28 patients” and the “dose-limiting toxicity / response of neutropenia” value ([11]; human, in vivo) was “appeared to be the dose-limiting toxicity. Neutropenia responded favorably to reduction in dose of AZT”. For the same compound, the “effect on electrolytes or renal or cardiac function” value ([11]; human, in vivo) was “no effect on electrolytes or renal or cardiac function”, the “headache (number of patients)” value ([11]; human, in vivo) was 8 patients and the “neutropenia (number of patients)” value ([11]; human, in vivo) was 13 patients. For the same compound, the “generalized pruritus (number of patients)” value ([11]; one episode, 29 patients) was “one”, the bone marrow biopsies ([11]; three patients) was “megaloblastic changes” and the reversibility of anemia ([11]; when the drug is discontinued) was “reversible in most patients when the drug is discontinued”. For the same compound, the “reduction in dosage or interruption of treatment” value ([12]; 250 mg every 4 hours (1.5 grams daily)) was “Many patients on AZT required a reduction in dosage or interruption of treatment, primarily because of anemia”, the “deaths (AZT group)” value ([12]; 250 mg every 4 hours, as of Sept. 18, 1986, 16 in patients receiving placebo) was “one” and the “patients requiring blood transfusions” value ([12]; human, in vivo) was “approximately 25%”. For the same compound, the “decreases in hemoglobin and neutrophils” value ([12]; second month of therapy, dose decreased or drug discontinued) was “decreases in hemoglobin and neutrophils occurred during the second month of therapy and appeared to be reversible if the dose was decreased or drug discontinued”, the “patients with greater than 25% reduction in hemoglobin” value ([12]; vs 13 of 137 patients receiving placebo, preliminary review) was 47 of 145 and the psoriasis clearance ([13]; 800 mg orally per day) was “completely cleared”. The “time to complete clearing of psoriasis” value ([13]; 800 mg orally per day) was “two to three”, the “time to significant improvement in lesion pruritus” value ([13]; 800 mg orally per day) was no more than 24 h and the lesion pruritus ([13]; 800 mg orally per day, within 24 hours) was “a significant improvement in the lesion pruritus”. For the same compound, the “pruritus after AZT was held for 7 days and restarted at half dose” value ([13]; AZT held 7 days, restarted at half dose) was “The pruritus returned temporarily”, the anemia ([13]; after a month, restarted at half dose) was “The AZT was held for 7 days after a month for anemia” and the “time until psoriasis began to clear” value ([13]; in vivo) was 24 h. For the same compound, the improvement of psoriasis ([13]; over a period several weeks) was “significant improvement over a period several weeks” and the “nail regrowth and psoriasis at three months” value ([13]; three months) was “nail regrowth was normal and the psoriasis was completely clear”.
For `Cc1cn([C@H]2C[C@H](N=[N+]=[N-])[C@@H](CO[C@@H]3O[C@H](C(=O)O)[C@@H](O)[C@H](O)[C@H]3O)O2)c(=O)[nH]c1=O` [GAZT, 5'-glucuronide of AZT], the “activity of the metabolite” value ([9]; in vivo) is given as “inactive”, the metabolite identification ([9]; plasma and urine) is given as “major plasma and urinary metabolite” and the “clearance from plasma (metabolite)” value ([9]; plasma) is given as “rapidly cleared from plasma”. The “plasma level relative to the corresponding AZT level” value ([9]; plasma) was 2-3 ×.
